Experiment [1] deals with human iPS cells. Briefly: Differentiation of human iPS cells into endoderm cells on mmcM15 cells, immunofluorescent staining for Sox17 and Oct3/4. Format: cell-based. Particulars: staining Day 10, vs control culture medium. On the procedure: (§1) In performing a whole mount immunohistochemistry test, ES cells or iPS cells were placed on Nunc Theranox Colerslips 24-well type (Nunc). Cells were fixed at room temperature for 20 minutes in 4% paraformaldehyde, and washed sufficiently with 0.1% Tween-containing phosphate buffered saline (PBS-T). In PBS containing 1% TritonX-100, the cells were infiltrated at room for 10 minutes, and incubated for 1 hour in a blocking solution (×5 Blocking One, Nacalai Tesque), then, primary antibodies in the blocking solution were added to the sample, and incubated at 4° C. overnight. The sample was washed sufficiently with PBS-T, and mounted with PermaFluor Aqueous Mounting culture medium (IMMUNON). A confocal image was obtained using Leica Spectral Confocal Scanning System, TCS-SP2 (Leica).
(§2) Antibodies used for detection are as described below. Rabbitanti-α-fetoprotein (AFP, Dako), goat anti-albumin (Sigma), rabbit anti-Pdx1 (Chemicon), mouse anti-Oct3/4 (Santa Cruz), goat anti-Sox17 (R&D). As secondary antibodies, Alexa568-labeled goat anti-rabbit antibody and donkey anti-goat antibody, and Alexa488-labeled goat anti-mouse antibody and goat anti-rabbit antibody, donkey anti-goat antibody (Molecular Probes) were used. Cells were counter-stained with DAPI (Roche). The numbers of Sox17 and Oct3/4 positive cells were quantified using ImageXpress (Molecular Devices Corporation).
Differentiation of human iPS cells into endoderm cells was induced using endoderm differentiation culture media deprived of one amino acid for each culture medium. For induction of differentiation into endoderm cells, an endoderm differentiation inducing method using mmcM15 cells was used (see, non-patent document 6).
As the culture medium, the following media were used depending on the culturing period. From initiation of culturing (Day 0) until Day 6 or Day 8 of culturing, PRMI 1640 culture medium (Invitrogen) containing 50 units/ml penicillin and 50 μg/ml streptomycin (GIBCO), 2 mM L-glutamine (GIBCO), 100 μM β-mercaptoethanol (Sigma), non-essential amino acid (GIBCO), 100 ng/ml activin (R&D Systems) and B27 culture medium additive (Invitrogen) added was used as an endoderm differentiation culture medium.
From Day 6 or Day 8 until Day 10, amino acid-deprived culture media obtained by removing one amino acid from PRMI 1640 culture medium containing 50 units/ml penicillin and 50 μg/ml streptomycin, 2 mM L-glutamine, 100 μM β-mercaptoethanol, 100 ng/ml activin and B27 culture medium additive added, or a culture medium not deprived of an amino acid (control culture medium) was used as an endoderm differentiation culture medium.
Specifically, mmcM15 cells were seeded as supporting cells on a gelatin-coated 96-well plate. Human iPS cells were treated with Y27632 (10 μM) from 24 hours before seeding, and peeled using 0.25% trypsin. The peeled human iPS cells were seeded on mmcM15 cells at a cell concentration of 1×10^4 cells/well. The seeded human iPS cells were cultured for 24 hours under 37° C. and 5% CO2 in ES culture medium (ReproStem, ReproCell) containing 10 μM Y27632 and 5 ng/ml bFGF added. After 24 hours, cells were washed once with PBS, then, the culture medium was changed to an endoderm differentiation culture medium (Day 0). Until Day 6 or Day 8 of culturing, the endoderm differentiation culture medium was changed every other day, and human iPS cells were cultured under 37° C. and 5% CO2. On Day 6 or Day 8, the culture medium was changed to an amino acid-deprived culture medium or a control culture medium. Human iPS cells were cultured until Day 10 of culturing using an amino acid-deprived culture medium or a control culture medium. On Day 10, human iPS cells were subjected to immunofluorescent staining, and the proportions of positive cells for an endoderm differentiation marker (Sox17) and an undifferentiation marker (Oct3/4) were quantitatively analyzed. The proportion of the positive cells based on those stained with DAPI was calculated.

Experiment [2] relates to human iPS cells. Briefly: Addition of methionine metabolites to methionine-deprived or methyl donor-deprived culture medium, Oct3/4 and Sox17 positive cells counted. Format: cell-based. Particulars: for effect of reducing Oct3/4 positive cells owing to methionine deprivation: added to methionine-deprived culture medium (ΔMet) Day 8 to Day 10; for effect of reducing Oct3/4 positive cells: added to methyl donor-deprived culture medium (ΔMD) Day 8 to Day 10. The method, then:
For investigating an influence of a methionine and methyl donor-deprived culture medium on differentiation into endoderm cells, a culture medium was deprived of methionine and methyl donors on Day 8 of differentiation, and cells were cultured until Day 10 and the numbers of Oct3/4 and Sox17 positive cells were evaluated by antibody staining. Specifically, mmcM15 cells were seeded as supporting cells on a gelatin-coated 96-well plate. Human iPS cells were treated with Y27632 (10 μM) from 24 hours before seeding, and peeled using 0.25% trypsin. The peeled human iPS cells were seeded on mmcM15 cells at a cell concentration of 1×10^4 cells/well. The seeded human iPS cells were cultured for 24 hours under 37° C. and 5% CO2 in ES culture medium containing Y27632 and bFGF added. After 24 hours, the culture medium was changed to an endoderm differentiation culture medium (Day 0). The endoderm differentiation culture medium was changed every other day and human iPS cells cultured under 37° C. and 5% CO2 from the day of initiation of culture (Day 0) to Day 8. On Day 8, the culture medium was changed to various culture media. One obtained by removing […]⋅folate⋅vitamin B12⋅betaine⋅choline from the culture medium was used as a methyl donor-deprived culture medium. Human iPS cells were cultured until Day 10 using various culture media, and Oct3/4 and Sox17 positive cells were counted.
It is known that methionine is metabolized to give cysteine (Cys). […] In the figure, δMD denotes a culture medium not containing methionine, folic acid, vitamin B12, betaine and choline as a methyl donor.

Experiment [3] concerns human iPS cells. The method, then:
as §1, §2
The methionine addition concentration between Day 8 and Day 10 was […], 0.1, 1.0, 5.0, 10.0, 20.0, 50.0, 100, 200 and 500 μM.
On Day 10, the culture medium was changed to a liver differentiation culture medium ([…] containing 10% KSR, 2000 mg/l D-glucose, 50 units/ml penicillin and 50 μg/ml streptomycin, 2 mM L-glutamine, 100 μM β-mercaptoethanol, […] human recombinant HGF and 1 μM dexamethasone (hereinafter, referred to as “2000KSR-DMEM culture medium”)), and cultured under 37° C. and 5% CO2 until Day 20. During Day 10 to Day 20, the culture medium was changed every other day. On Day 20, human iPs cells were subjected to immunofluorescent staining, and the proportions of Oct3/4 positive cells and AFP positive cells were compared for every methionine concentration.
On Day 10, the culture medium was changed to a liver differentiation culture medium (2000KSR-DMEM culture medium), and human iPS cells were cultured under 37° C. and 5% CO2 until Day 30. During Day 10 to Day 30, the culture medium was changed every other day.

Where [4] appears, read: amino acid-deprived endoderm differentiation culture medium Day 6 to Day 10.
The mark [5] stands for this setting: amino acid-deprived endoderm differentiation culture medium Day 8 to Day 10.
The mark [6] stands for this setting: methionine 0 μM to 0.1 μM Day 8 to Day 10, Day 20, FIG. 7C.
The mark [7] stands for this setting: methionine 1 μM to 20 μM Day 8 to Day 10, Day 20, FIG. 7C.
Where [8] appears, read: methionine 50 μM or more Day 8 to Day 10, Day 20, FIG. 7C.

Like-named read-outs stand apart in the source and are kept apart here.

For `N=C(N)NCCC[C@H](N)C(=O)O` [Arg, arginine], the “Oct3/4 positive cell ratio” value with human iPS cells [1] (setting [4]) is listed as “decreased”. In the experiment with human iPS cells [1] (setting [5]), the “Oct3/4 positive cell ratio” value was “remarkably decreased” and the “Sox17 positive cell ratio” value is reported as “increased”.

Regarding `N[C@@H](CS)C(=O)O` [Cys, cysteine], in the experiment on human iPS cells [1] (setting [4]), the “Oct3/4 positive cell ratio” value is “decreased”. In the experiment on human iPS cells [1] (setting [5]), the “Oct3/4 positive cell ratio” value is recorded as “remarkably decreased” and the “Sox17 positive cell ratio” value was “increased”. In the experiment with human iPS cells [2], the “effect of reducing Oct3/4 positive cells owing to methionine deprivation” value is listed as “has no influence”.

Take `NC(=O)CC[C@H](N)C(=O)O` [Gln]: the “Sox17 positive cell ratio” value in the experiment with human iPS cells [1] (setting [5]) was “increased”.

On to `NCC(=O)O` [Gly], for which the “Sox17 positive cell ratio” value with human iPS cells [1] (setting [5]) was “increased”.

Take `N[C@@H](CCS)C(=O)O` [Hcy, homocysteine]: in the experiment with human iPS cells [2], the “effect of reducing Oct3/4 positive cells owing to methionine deprivation” value is recorded as “the effect of reducing Oct3/4 positive cells is inhibited” and the “effect of reducing Oct3/4 positive cells” value is given as “had not influence”.

In the case of `N[C@@H](Cc1c[nH]cn1)C(=O)O` [His, histidine], the “Oct3/4 positive cell ratio” value in the experiment with human iPS cells [1] (setting [4]) is recorded as “decreased”; with human iPS cells [1] (setting [5]), “remarkably decreased”.

`CC[C@H](C)[C@H](N)C(=O)O` [Ile, isoleucine]: the “Oct3/4 positive cell ratio” value in the experiment with human iPS cells [1] (setting [4]) was “decreased”; in the experiment with human iPS cells [1] (setting [5]) it was “remarkably decreased”.

On to `CC(C)C[C@H](N)C(=O)O` [Leu, leucine], for which the entries for the “Oct3/4 positive cell ratio” value with human iPS cells [1] (setting [4]) and in the experiment with human iPS cells [1] (setting [5]) were “decreased” and “remarkably decreased”, respectively. Moreover, the “Sox17 positive cell ratio” value in the experiment on human iPS cells [1] (setting [5]) is on record as “increased”.

Consider `NCCCC[C@H](N)C(=O)O` [Lys, lysine], for which the “Oct3/4 positive cell ratio” value in the experiment with human iPS cells [1] (setting [4]) was “decreased”; with human iPS cells [1] (setting [5]) it was “remarkably decreased”.

Turning to `CSCC[C@H](N)C(=O)O` [Met, methionine], the “Oct3/4 positive cell ratio” value in the experiment on human iPS cells [1] (setting [4]) is “decreased”. Also, in the experiment on human iPS cells [1] (setting [5]), the “Oct3/4 positive cell ratio” value is reported as “remarkably decreased” and the “Sox17 positive cell ratio” value is recorded as “increased”. For the same molecule, in the experiment with human iPS cells [2], the “effect of reducing Oct3/4 positive cells owing to methionine deprivation” value was “the effect of reducing Oct3/4 positive cells is inhibited” and the “effect of reducing Oct3/4 positive cells” value is “inhibited the effect of reducing Oct3/4 positive cells”. Moreover, in the experiment on human iPS cells [3] (setting [6]), the AFP positive cells result is listed as “present uniformly” and the “amount of remaining Oct3/4 positive cells” value is “small”. In the experiment on human iPS cells [3] (setting [7]), the “number of AFP positive cells” value was “decrease in the number of AFP positive cells is not recognized” and the “number of Oct3/4 positive cells” value was “increases slightly”. Besides, in the experiment with human iPS cells [3] (setting [8]), the “number of Oct3/4 positive cells” value was “remarkable increase” and the “number of Sox17 positive cells” value is “remarkable decrease”. For the same molecule, the “proportion of Oct3/4 positive cells on Day 20” value in the experiment with human iPS cells [3] (methionine added Day 8 to Day 10 at various concentrations up to 500 μM, then liver differentiation culture medium) is recorded as “increased depending on the methionine concentration”. In addition, in the experiment on human iPS cells [3] (methionine concentrations of 50 μM or more Day 8 to Day 10, Day 20, FIG. 7B), the “proportion of AFP positive cells” value was “decreased”.

As for `N[C@@H](Cc1ccccc1)C(=O)O` [Phe, phenylalanine], the “Oct3/4 positive cell ratio” value with human iPS cells [1] (setting [4]) is given as “decreased”; in the experiment with human iPS cells [1] (setting [5]) it was “remarkably decreased”.

Take `Nc1ncnc2c1ncn2[C@@H]1O[C@H](CSCC[C@H](N)C(=O)O)[C@@H](O)[C@H]1O` [SAH, S-adenosylhomocystein]: in the experiment with human iPS cells [2], the “effect of reducing Oct3/4 positive cells owing to methionine deprivation” value was “the effect of reducing Oct3/4 positive cells is inhibited” and the “effect of reducing Oct3/4 positive cells” value is listed as “had not influence”.

As for `C[S+](CC[C@H](N)C(=O)O)C[C@H]1O[C@@H](n2cnc3c(N)ncnc32)[C@H](O)[C@@H]1O` (stereo partly shown) [SAM, S-adenosylmethionine], in the experiment with human iPS cells [2], the “effect of reducing Oct3/4 positive cells owing to methionine deprivation” value is “the effect of reducing Oct3/4 positive cells is inhibited” and the “effect of reducing Oct3/4 positive cells” value is “inhibited the effect of reducing Oct3/4 positive cells”.

With `N[C@@H](CO)C(=O)O` [Ser], in the experiment with human iPS cells [1] (setting [5]), the “Sox17 positive cell ratio” value is “increased”.

As for `C[C@@H](O)[C@H](N)C(=O)O` [Thr, threonine], the entries for the “Oct3/4 positive cell ratio” value in the experiment with human iPS cells [1] (setting [4]) and with human iPS cells [1] (setting [5]) were “decreased” and “remarkably decreased”, respectively.

On to `N[C@@H](Cc1c[nH]c2ccccc12)C(=O)O` [Trp, tryptophan], for which the “Oct3/4 positive cell ratio” value is recorded as “decreased” with human iPS cells [1] (setting [4]) and “remarkably decreased” in the experiment with human iPS cells [1] (setting [5]).

Take `N[C@@H](Cc1ccc(O)cc1)C(=O)O` [Tyr, tyrosine]: the “Oct3/4 positive cell ratio” value was “decreased” with human iPS cells [1] (setting [4]) and “remarkably decreased” in the experiment with human iPS cells [1] (setting [5]). Also, the “Sox17 positive cell ratio” value in the experiment on human iPS cells [1] (setting [5]) is recorded as “without change”.

Take `CC(C)[C@H](N)C(=O)O` [Val, valine]: the “Oct3/4 positive cell ratio” value with human iPS cells [1] (setting [4]) was “decreased”; with human iPS cells [1] (setting [5]), “remarkably decreased”.
